The record followed here is patent US11708344B2, “Flavone derivatives for the treatment and prophylaxis of hepatitis B virus disease” (Hoffmann-La Roche Inc., priority 2018, dated 2023).

The test system of experiment [1] is HBsAg in HBV-infected PHH. Nature of the experiment: Cryopreserved primary human hepatocytes (PHH) HBV infection assay, extracellular HBsAg (CLIA). The class given is cell-based. The procedure: This assay is used to confirm the anti-HBV effect of the compounds in HBV PHH infection assay. Cryopreserved PHH (BioreclamationIVT, Lot YJM) was thawed at 37° C. and gently transferred into pre-warmed InVitroGRO HT medium (BioreclamationIVT, Cat. S03317). The mixture was centrifuged at 70 relative centrifugal force (RCF) for 3 minutes at RT, and the supernatant was discarded. Pre-warmed InVitroGRO CP medium (BioreclamationIVT, Cat #S03316) was added to the cell pellet to gently re-suspend cells. The cells were seeded at the density of 5.8×10^4 cells per well to collagen I coated 96-well plate (Gibco, Cat. A1142803) with the InVitroGRO CP medium. All plates were incubated at 37° C. with 5% CO2 and 85% humidity.
At 20 hours after plating, the medium was changed to PHH culture medium (Dulbecco's Modified Eagle Medium (DMEM)/F12 (1:1) (Gibco, Cat. 11320-033), 10% fetal bovine semm (Gibco Cat. 10099141), 100 U/mL penicillin, 100 μg/mL streptomycin (Gibco, Cat. 151401-122), […] (Invitrogen Cat. PHG0311L), 20 ng/mL dexamethasone (Sigma, Cat. D4902) and 250 ng/mL human recombinant insulin (Gibco, Cat. 12585-014)). And the cells were incubated at 37° C. with 5% CO2 and 85% humidity for 4 hours. The medium was then changed to pre-warmed PHH culture medium containing 4% polyethylene glycol (PEG) MW8000 (Sigma, Cat. P1458-50 ML) and 1% DMSO (Sigma, Cat. D2650). 5.8×10^6 genomic equivalents of HBV were added into the medium.
At 24 hours post-infection, the cells were gently washed with PBS and refreshed with PHH culture medium supplemented with 1% DMSO, and 0.25 mg/mL Matrix gel (Corning, Cat. 356237) at 200 μL per well. All plates were immediately placed in at 37° C. CO2 incubator.
24 hours later, serial dilutions of compounds made with DMSO were further diluted with the same culture medium (PHH culture medium supplemented with 1% DMSO and 0.25 mg/mL Matrix gel as described above) before they were added to the cells to reach desired final compound concentrations and 1% DMSO concentration. The medium containing the compounds were refreshed every three days.
At 9 days post-compound treatment, extracellular HBsAg level were measured with Chemiluminescence Immuno Assay (CLIA) kit (Autobio, HBsAg Quantitative CLIA). Extracellular HBV DNA was extracted by MagNA Pure 96 system (Roche) and then determined by quantitative PCR with the following primers and probe: […]
HBsAg IC50 and HBV DNA IC50 values were derived from the dose-response curve using 4 parameter logistic curve fit method. The compounds of formula (I) have HBsAg IC50<20 μM, particularly <1 μM; and HBV DNA IC50<50 μM.

Experiment [2] has as its system HBeAg (surrogate marker for cccDNA) in HepDES19 cells. Nature of the experiment: Engineered HepDES19 primary screen assay (HBeAg ELISA). The class given is cell-based, HBV. The gist of the method:
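HepDES19 cells were induced by Tet withdrawal for 8 days, then treated with half-log compound dilutions (1% DMSO final) for 5 days at 37 °C. HBeAg was measured by ELISA as the cccDNA surrogate, viability by CCK-8, and IC50 from a 4-parameter logistic fit.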
(ELISA stands for enzyme-linked immunosorbent assay.)

Where [3] appears, read: read-out: IC50 (HBeAg level, HepDES19 primary screen assay), HepDES19 cells, 5 days compound incubation, HBeAg ELISA.
Setting [4] is: Hepatitis B virus, Hepatocyte, 216 h, read-out: HBsAg IC50, Cryopreserved PHH infected with HBV, 9 days post-compound treatment, extracellular HBsAg.
The mark [5] stands for this setting: Hepatitis B virus, HepDES19, 120 h, read-out: IC50 (HBeAg level, HepDES19 primary screen assay), HepDES19 cells, 5 days compound incubation, HBeAg ELISA.

Like-named read-outs stand apart in the source and are kept apart here.

The IC50 is the concentration at which inhibition is half-maximal. Regarding `Cc1cc(-c2cc(=O)c3cccc(Cl)c3o2)c(OC2CC(C(=O)O)C2)cc1Cl` (stereo in doubt) [Example B012-B, Trans-3-[5-chloro-2-(8-chloro-4-oxo-chromen-2-yl)-4-methyl-phenoxy]cyclobutanecarboxylic acid], the concentration for half-maximal inhibition (IC50) in experiment [1] (read-out: HBsAg IC50, Cryopreserved PHH infected with HBV, 9 days post-compound treatment, extracellular HBsAg) was 2560 nM; in experiment [2] (setting [3]), 2720 nM.

For the molecule `COC(=O)CCOc1cc(C(F)(F)F)ccc1-c1cc(=O)c2cccc(Cl)c2o1` [Example A002, methyl 3-[2-(8-chloro-4-oxo-chromen-2-yl)-5-(trifluoromethyl)phenoxy]propanoate], the IC50 in experiment [1] (setting [4]) came to 1820 nM; in experiment [2] (setting [5]) it was 795 nM.

On to `Cc1cc(-c2cc(=O)c3cccc(Cl)c3o2)c(OCCC(=O)O)cc1Br` [Example A006, 3-[5-bromo-2-(8-chloro-4-oxo-chromen-2-yl)-4-methyl-phenoxy]propanoic acid], for which the IC50 in experiment [1] (setting [4]) was determined as 1080 nM; in experiment [2] (setting [5]), 1230 nM.

Consider `O=C(O)CCOc1cc2c(cc1-c1cc(=O)c3cccc(Cl)c3o1)OCO2` [Example A011, 3-[[6-(8-chloro-4-oxo-chromen-2-yl)-1,3-benzodioxol-5-yl]oxy]propanoic acid], for which the IC50 came to 931 nM in experiment [1] (setting [4]) and 415 nM in experiment [2] (setting [5]).

Consider `COc1cc(OCCC(=O)O)c(-c2cc(=O)c3cccc(Cl)c3o2)cc1C` [Example A012, 3-[2-(8-chloro-4-oxo-chromen-2-yl)-5-methoxy-4-methyl-phenoxy]propanoic acid], for which the IC50 in experiment [1] (setting [4]) was determined as 2110 nM; in experiment [2] (setting [5]), 650 nM.

As to `Cc1ccc(-c2cc(=O)c3cccc(Cl)c3o2)c(OCCC(=O)O)c1` [Example A013, 3-[2-(8-chloro-4-oxo-chromen-2-yl)-5-methyl-phenoxy]propanoic], the figures for the half-inhibitory concentration (IC50) in experiment [1] (setting [4]) and in experiment [2] (setting [5]) were 1910 nM and 656 nM, respectively.

As for `O=C(O)CCOc1cc(OC(F)(F)F)c(Br)cc1-c1cc(=O)c2cccc(Cl)c2o1` [Example A016, 3-[4-bromo-2-(8-chloro-4-oxo-chromen-2-yl)-5-(trifluoromethoxy)phenoxy]propanoic acid], the IC50 in experiment [1] (setting [4]) was 828 nM; in experiment [2] (setting [5]) it was 1030 nM.

For `O=C(O)CCOc1cc(Br)cc(F)c1-c1cc(=O)c2cccc(Cl)c2o1` [Example A020, 3-[5-bromo-2-(8-chloro-4-oxo-chromen-2-yl)-3-fluoro-phenoxy]propanoic acid], the IC50 in experiment [1] (setting [4]) was found to be 7500 nM; in experiment [2] (setting [5]), 780 nM.

As to `O=C(O)CCCOc1cc(Br)ccc1-c1cc(=O)c2cccc(Cl)c2o1` [Example A055, 4-[5-bromo-2-(8-chloro-4-oxo-chromen-2-yl)phenoxy]butanoic acid], the IC50 in experiment [1] (setting [4]) was 2380 nM; in experiment [2] (setting [5]) it was 95.5 nM.

Turning to `Cc1cc(-c2cc(=O)c3cccc(Cl)c3o2)c(OCC(=O)N2C[C@@H](O)[C@@H](O)C2)cc1Br` [Example A090, 2-[4-bromo-5-methyl-2-[2-oxo-2-[rac-(3S,4R)-3,4-dihydroxypyrrolidin-1-yl]ethoxy]phenyl]-8-chloro-chromen-4-one], the values for the half-inhibitory concentration (IC50) in experiment [1] (setting [4]) and in experiment [2] (setting [5]) were 9350 nM and 4790 nM, respectively.

With `O=C(COc1cc(C(F)(F)F)ccc1-c1cc(=O)c2cccc(Cl)c2o1)N1CCOCC1` [Example A092, 8-chloro-2-[2-(2-morpholino-2-oxo-ethoxy)-4-(trifluoromethyl)phenyl]chromen-4-one], the 50% inhibitory concentration (IC50) in experiment [1] (setting [4]) stood at 2800 nM; in experiment [2] (setting [5]) it was 1130 nM.

In the case of `O=C(O)C1CC(Oc2cc(Br)ccc2-c2cc(=O)c3cccc(Cl)c3o2)C1` (stereo not drawn) [Example B001, 3-[5-bromo-2-(8-chloro-4-oxo-chromen-2-yl)phenoxy]cyclobutanecarboxylic acid], the IC50 in experiment [1] (setting [4]) stood at 1030 nM; in experiment [2] (setting [5]) it was 213 nM.

Take `Cc1cc(-c2cc(=O)c3cccc(Cl)c3o2)c(O[C@H]2C[C@@H](C(=O)O)C2)cc1Br` [Example B013-A, Cis-3-[5-bromo-2-(8-chloro-4-oxo-chromen-2-yl)-4-methyl-phenoxy]cyclobutanecarboxylic acid]: the results for the half-maximal inhibitory concentration (IC50) in experiment [1] (setting [4]) and in experiment [2] (setting [5]) were 7300 nM and 919 nM, respectively.

As for `Cc1cc(-c2cc(=O)c3cccc(Cl)c3o2)c(O[C@H]2C[C@H](C(=O)O)C2)cc1Br` [Example B013-B, Trans-3-[5-bromo-2-(8-chloro-4-oxo-chromen-2-yl)-4-methyl-phenoxy]cyclobutanecarboxylic acid], the IC50 came out at 1020 nM in experiment [1] (setting [4]) and 2450 nM in experiment [2] (setting [5]).

For the molecule `COc1cc(O[C@H]2C[C@H](C(=O)O)C2)c(-c2cc(=O)c3cccc(Cl)c3o2)cc1C` [Example B017, 3-[2-(8-chloro-4-oxo-chromen-2-yl)-5-methoxy-4-methyl-phenoxy]cyclobutanecarboxylic acid], the IC50 in experiment [1] (setting [4]) turned out to be 4870 nM; in experiment [2] (setting [5]), 4850 nM.

`Cc1ccc(-c2cc(=O)c3cccc(Cl)c3o2)c(O[C@H]2C[C@H](C(=O)O)C2)c1` [Example B018-B, Trans-3-[2-(8-chloro-4-oxo-chromen-2-yl)-5-methyl-phenoxy]cyclobutanecarboxylic acid]: the IC50 in experiment [1] (setting [4]) turned out to be 4700 nM; in experiment [2] (setting [5]), 548 nM.

With `CCc1ccc(-c2cc(=O)c3cccc(Cl)c3o2)c(O[C@H]2C[C@@H](C(=O)O)C2)c1` [Example B019-A, Cis-3-[2-(8-chloro-4-oxo-chromen-2-yl)-5-ethyl-phenoxy]cyclobutanecarboxylic acid], the IC50 in experiment [1] (setting [4]) was 3960 nM; in experiment [2] (setting [5]) it was 1030 nM.

`O=c1cc(-c2ccc(Br)cc2OC[C@H]2C[C@H](C(=O)O)C2)oc2c(Cl)cccc12` [Example B025-B, Trans-3-[[5-bromo-2-(8-chloro-4-oxo-chromen-2-yl)phenoxy]methyl]cyclobutanecarboxylic acid]: the IC50 was 3060 nM in experiment [1] (setting [4]) and 2270 nM in experiment [2] (setting [3]).

For `COc1cc(O[C@H]2C[C@H](C(=O)NS(C)(=O)=O)C2)c(-c2cc(=O)c3cccc(Cl)c3o2)cc1Br` [Example B055-B, Trans-3-[4-bromo-2-(8-chloro-4-oxo-chromen-2-yl)-5-methoxy-phenoxy]-N-methylsulfonyl-cyclobutanecarboxamide], the IC50 in experiment [1] (setting [4]) was determined as 4000 nM; in experiment [2] (setting [5]) it was 3880 nM.

Take `N#CC1CC(Oc2cc(C(F)(F)F)ccc2-c2cc(=O)c3cccc(Cl)c3o2)C1` (stereo not drawn) [Example B070, 3-[2-(8-chloro-4-oxo-chromen-2-yl)-5-(trifluoromethyl)phenoxy]cyclobutanecarbonitrile]: the half-maximal inhibitory concentration (IC50) in experiment [1] (setting [4]) stood at 788 nM; in experiment [2] (setting [5]) it was 435 nM.

With `CN(C)S(=O)(=O)CCCOc1cc(Br)ccc1-c1cc(=O)c2cccc(Cl)c2o1` [Example B071, 3-[5-bromo-2-(8-chloro-4-oxo-chromen-2-yl)phenoxy]-N,N-dimethyl-propane-1-sulfonamide], the IC50 in experiment [1] (setting [4]) was 4950 nM; in experiment [2] (setting [5]), 988 nM.

As for `O=C(O)COCCCOc1cc(Br)ccc1-c1cc(=O)c2cccc(Cl)c2o1` [Example C010, 2-[3-[5-bromo-2-(8-chloro-4-oxo-chromen-2-yl)phenoxy]propoxy]acetic acid], the 50% inhibitory concentration (IC50) in experiment [1] (setting [4]) came to 9380 nM; in experiment [2] (setting [5]) it was 696 nM.

As to `Cc1cc(-c2cc(=O)c3cccc(Cl)c3o2)c(OCCO[C@H]2C[C@@H](C(=O)O)C2)cc1Br` [Example C031-A, Cis-3-[2-[5-bromo-2-(8-chloro-4-oxo-chromen-2-yl)-4-methyl-phenoxy]ethoxy]cyclobutanecarboxylic acid], the figures for the concentration for half-maximal inhibition (IC50) in experiment [1] (setting [4]) and in experiment [2] (setting [5]) were 1160 nM and 6190 nM, respectively.

Turning to `COc1cc(OCCO[C@H]2C[C@@H](C(=O)O)C2)c(-c2cc(=O)c3cccc(Cl)c3o2)cc1C` [Example C041-A, Cis-3-[2-[2-(8-chloro-4-oxo-chromen-2-yl)-5-methoxy-4-methyl-phenoxy]ethoxy]cyclobutanecarboxylic acid], the 50% inhibitory concentration (IC50) worked out at 5930 nM in experiment [1] (setting [4]) and 7840 nM in experiment [2] (setting [5]).
